Experimental data from US20160067272A1, “METHODS FOR TREATING IMMUNE DISEASES” (priority 2013, published 2016).

What was measured:
[1] = test system: CD4+CD25+ nTregs; test: IL-17A secretion by nTregs cultured with NAD+ and purinergic receptor antagonists; conditions: for production of IL-17A cytokine induced by NAD+: nTregs cultured with NAD+ and the selective antagonist (5-BDBD: P2RX4; A804598: P2RX7; MRS 2279: P2RY1), ELISA; for reduction of IL-17A cytokine production induced by NAD+: both selective antagonists (5-BDBD and A804598) added
[2] = target: T1, Tph-1 (Mus musculus, UniProt P17532); test: EAE mouse model with Tph-1 inhibition (NAD+ plus p-Chlorophenylalanine); type: in vivo
T1 construct: from tissue; host or cells: whole animal: C57BL/6 mice (Charles River Laboratories)
T1 sequence (P17532 1-447): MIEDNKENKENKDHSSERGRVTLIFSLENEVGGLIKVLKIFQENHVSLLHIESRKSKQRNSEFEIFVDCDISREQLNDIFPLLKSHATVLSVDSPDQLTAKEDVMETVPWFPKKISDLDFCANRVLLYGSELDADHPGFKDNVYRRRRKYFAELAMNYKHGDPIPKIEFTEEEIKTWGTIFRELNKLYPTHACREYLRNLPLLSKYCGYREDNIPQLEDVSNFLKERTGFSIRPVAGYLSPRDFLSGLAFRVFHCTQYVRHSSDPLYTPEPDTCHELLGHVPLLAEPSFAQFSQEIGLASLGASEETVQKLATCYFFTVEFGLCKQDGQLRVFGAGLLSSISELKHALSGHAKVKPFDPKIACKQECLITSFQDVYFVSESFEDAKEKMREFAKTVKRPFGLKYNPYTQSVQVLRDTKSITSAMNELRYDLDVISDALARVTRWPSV
Protocol: Tph-1 has been very recently shown to prevent from allograft rejection and EAE^45. Thus, it was tested, in vivo, whether NAD^+ protects from EAE and regulates CD4^+ T cell differentiation through Tph1. Mice were subjected to EAE and were treated daily with a placebo solution (PBS) or NAD^+ in addition to p-Chlorophenylalanine, a specific inhibitor of Tph-1.
Onsets of clinical signs of EAE in mice injected with MOG peptide and a placebo solution appeared after 11 days (FIG. 6A). […] However, when NAD^+ treated mice received simultaneously a treatment with a Tph-1 inhibitor, onset of clinical signs of EAE appeared after 11 days.
EAE was induced in 10-week-old C57BL/6 mice using Hooke Labs EAE induction kit (EK-2110) according to manufacturer's instructions. […] For NAD^+ treatment mice received a daily intraperitoneal injection (60 mg in 100 μl in PBS) or a placebo solution (100 μl of PBS) at the same day than MOG immunization. Mice were sacrificed at day 18 and single cell suspension was obtained from spleens for flow cytometry analysis. To test whether NAD^+ was able to reverse the development of EAE, another group of mice was treated daily (for a period of 10 days) with NAD^+ (60 mg/mouse) or a placebo solution 15 days after MOG immunization when mice were scored 3 with a bilateral hindlimb paresis. EAE disease progression was monitored. For Tph-1 or CA3 inhibition, mice received daily intraperitoneal injections (simultaneous to NAD^−) of p-Chlorophenylalanine (1 ml of a 10 mM solution stock, catalog number 0938, Tocris Bioscience) or N-[[[(1S)-1-Carboxy-3-methylbutyl]amino]carbonyl]-L-glutamic acid (100 μl of a 100 mM solution stock, ZJ 43 catalog number 2675,Tocris Bioscience), respectively.

[3] = NAD+ plus Tph-1 inhibition, flow cytometry
[4] = NAD+ treatment followed by Tph-1 inhibition, spleen, flow cytometry

In the case of `CNc1nc(Cl)nc2c1ncn2[C@H]1C[C@H](OP(=O)(O)O)[C@]2(COP(=O)(O)O)C[C@H]12` [MRS 2279, 2-Chloro N(6)-methyl-(N)-methanocarba-2′-deoxyadenosine-3′,5′-bisphosphate], the “production of IL-17A cytokine induced by NAD+” value [1] is reported as “did not change”.
For `O=C1CN=C(c2cccc(Br)c2)c2oc3ccccc3c2N1` [5-BDBD], the “reduction of IL-17A cytokine production induced by NAD+” value [1] was “complete” and the “production of IL-17A cytokine induced by NAD+” value [1] was “dramatic reduced production”.
With `C[C@H](NC(=NC#N)Nc1cccc2ncccc12)c1ccccc1` [A804598, 2-cyano-1-[(1S)-1-phenylethyl]-3-quinolin-5-ylguanidine] the “reduction of IL-17A cytokine production induced by NAD+” value [1] was “complete” and the “production of IL-17A cytokine induced by NAD+” value [1] was “dramatic reduced production”.
With `N[C@@H](Cc1ccc(Cl)cc1)C(=O)O` (racemic) [p-Chlorophenylalanine] the clinical observation ([2]; EAE mice treated with NAD+ and Tph-1 inhibitor) was “hindlimb paralysis and became rapidly lethargic”, the “clinical signs of EAE vs MOG + placebo group” value ([2]; NAD+ and p-Chlorophenylalanine, 13 days after MOG immunization) was “more severe clinical signs of EAE” and the “CD4+CD25+Foxp3+ cell frequencies” value [2, 3] was “dramatic decrease”. The “IL-17A+IL-23R+ cells” value [2, 3] was “significant increase”, the “onset of clinical signs of EAE” value ([2]; NAD+ treated mice receiving Tph-1 inhibitor simultaneously, after MOG immunization) was 11 days and the IL-10/IFNγ producing cells [2, 4] was “reduced systemically”. The IL-17A producing cells [2, 4] was “reduced systemically”.
